Laboratory results taken from patent publication US4927826A, “Cycloproylpropenamides useful as platelet activing factor (PAF) antagonists” (Hoffman-La Roche Inc., priority 1988, dated 1990).

Columns and labels:
[1] = system: dog platelets; experiment: Binding assay: inhibition of 3H-PAF binding to dog platelets; conditions: 10 minutes at room temperature
Protocol: The binding assay was done in 400 μl polyethylene microcentrifuge tubes (Beckman) containing 50 μl of an oil mixture of 2 parts Siliconol AR200 (Serva): 1 part Silicone Fluid (Arthur H. Thomas). Buffer, standards, or analogs (150 μl total volume) were added to the tubes. Radiolabelled ^3 H-PAF (50 μl) was then added to the tubes. The reaction was started by the addition of 50 μl of dog platelets (2×10^7 platelets). The tubes were capped, inverted several times to mix, and incubated for 10 minutes at room temperature. The platelets were separated from the incubation mixture by centrifuging 1 minute in a Beckman Microfuge B centrifuge. The tip of the microfuge tube was cut off, and the platelets were washed out of the tip with 200 μl of 50% methanol (Burdick and Jackson). Aquasol (NEN, 10 ml) was added and the radioactivity in the samples was determined using an LS 8100 Beckman liquid scintillation counter linked to a Techtran tape recorder. Data was processed through an in-house computer system. Alternatively, radioactivity was determined using a Searle Mark III liquid scintillation counter linked to a Iso-Data microprocessor.
(b) Preparation of Platelets
Blood was collected from anesthesized or unanesthesized dogs into 50 ml plastic centrifuge tubes containing 3.8% sodium citrate as the anticoagulant (1 volume of citrate/9 volumes of blood). The red cells were removed by centrifugation for 15 minutes at 600 rpm (100-125 g) at room temperature. An aliquot of the supernatant platelet rich plasma (PRP) was saved for cell counting and the remainder was acidified by pH 6.5 with 0.15M citric acid. The platelet pellet was obtained after a 10 minute centrifugation at 2000 rpm (1000 g) at room temperature. Washed platelets were prepared by resuspending the platelet pellet once with PBS containing 1 mM EDTA, centrifuging as noted, and then resuspending the platelets in 0.1% BSA-PBS. An aliquot of the washed platelets was counted. Platelets used for binding assays were diluted to 2×10^7 platelets/assay tube (4×10^8 platelets/ml). Platelet counting was done using a Royco Cell-Crit 921.

[2] = system: PAF-induced Platelet Count Decrease; experiment: PAF induced platelet count decrease; assay type: in vivo, guinea pig; conditions: for Percent Inhib. of PAF-induced Platelet Count Decrease, 3 mg/Kg i.v.: guinea pig, 15 minutes after drug injection, PAF 75 ng/kg i.v.
Protocol: PAF INDUCED PLATELET COUNT DECREASE
Male Hartley guinea pigs weighing between 500 and 900 grams were fed standard guinea pig chow and tap water ad libitum. PAF was solubilized in ethanol and stored as a 2 mM stock solution at -70° C. The stock solution of PAF was diluted to 1 pM in Tris buffer pH 7.4 and 0.1% BSA for all experiments.
(a) Intravenous Procedure
Guinea pigs were anesthetized with urethane (1.6 g/kg, i.p.). A catheter (PE50) was introduced into the right carotid artery for withdrawing blood. A second catheter PE10) was introduced into the jugular vein for injecting drugs and for administering the PAF challenge (75 ng/kg, i.v.). A control blood sample was obtained and platelets were counted in a whole blood platelet analyzer. PAF was then given and blood samples were taken 15, 30, and 60 seconds after the challenge for platelet counts. Fifteen minutes later, selected concentrations of the test compound were solubilized in DMSO and injected intravenously into a group of 4-6 animals. Only one concentration of antagonist was used in each animal group. Fifteen minutes after drug injection, blood samples were taken before and 15, 30, and 60 sec after the PAF challenge, and analyzed for platelet number.
Animals were anesthetized with sodium pentobarbital (35 mg/kg, i.p.) and the caritoid artery and jugular vein were cannulated as described above. The cannulae were exteriorized at the base of the neck and the animals were allowed to recover. At least 18 hours after surgery, conscious unrestrained guinea pigs were used in the experiment. The animals were challenged two time with PAF (120 ng/kg, i.v.); the first to establish a consistent response to PAF and the second to serve as a control for the PAF challenge. Blood samples were taken before and 15, 30, and 45 seconds after PAF challenge and platelets were counted. Thirty minutes after the control PAF challenge, the animal were orally dosed with either gum acacia or the test compound. Animals were then challenged with PAF at 1, 3, 5, and 24 hours after the administration of the drug.
DATA ANALYSIS AND STATISTICS
The % change, i.e., the difference in platelet number before and after PAF challenge was calculated by: [formula]
Statistical significance (p 0.05) of the difference between the mean PAF control and mean drug treated activity was determined with paried Student's t-test.

[3] = system: PAF-induced Bronchoconstriction; experiment: PAF Induced Bronchoconstriction Assay; assay type: in vivo; conditions: guinea pig, ± standard error of the mean; for Percent Inhib. of PAF-induced Bronchoconstriction, 50 mg/Kg p.o.: 2-hour pretreatment, PAF i.v.; for Percent Inhib. of PAF-induced Bronchoconstriction, 1 mg/Kg i.v.: 1 minute pretreatment, PAF 1.0 μg/kg i.v.
Protocol: PAF Induced Bronchoconstriction Assay
Male animals (Hartlet Strain, 400-500 g) were anesthetized with urethane (2 g/kg, i.p.). Each animals' trachea was cannulated and the guinea pigs were respirated using a Harvard small animal rodent respirator (3.0 cc stroke volume, 40 breaths per min.). Tracheal pressure was recorded from a cannula inserted in the trachea and connected to a Statham Pressure Transducer.
The jugular vein was cannulated for administering compounds. Spontaneous breathing was arrested with succinylcholine (1.2 mg/kg, i.v.) administered 2 minutes prior to intravenous injection of platelet activating factor (PAF).
For, the intravenous testing, the guinea pig is given a 5-minute pretreatment with propranolol at a dose of 0.1 mg/kg intravenously. The test compound is administered with a 1 minute pretreatment prior to intravenous challenge with PAF. The animal is then challenged with a 1.0 μg/kg intravenous dose of PAF and the change is tracheal pressure is measured.
For the oral testing, the procedure includes a 2-hour pretreatment period with the test compound administered through an oral gavage tube. Propranolol or succinylcholine and PAF are administered intravenously, and the change in tracheal pressure measured.
The change is tracheal pressure is determined by subtracting the steady state baseline achieved after administration of succinylcholine from the peak bronchoconstriction seen after challenge with PAF. The mean is calculated for each test compound and compared to the mean of the control animals to give the percent inhibition of bronchoconstriction. The standard error is calculated as the standard error of the mean.

SMILES | IC50 [1] | Percent Inhib. of PAF-induced Platelet Count Decrease, 3 mg/Kg i.v. [2] | Percent Inhib. of PAF-induced Bronchoconstriction, 50 mg/Kg p.o. [3] | Percent Inhib. of PAF-induced Bronchoconstriction, 1 mg/Kg i.v. [3] | Percent Inhib. of PAF-induced Platelet Count Decrease, 30 mg/Kg p.o. ([2]; conscious guinea pig, 30 mg/Kg p.o., PAF 120 ng/kg i.v.)
O=C(/C=C\C1CC1(c1cccc(F)c1)c1cccc(F)c1)NCCCCc1cccnc1 (racemic) [[R,S-(Z)]-3-[2,2-bis(3-Fluorophenyl)cyclopropyl]-N-[4-(3-pyridinyl)butyl]-2-propenamide] | 100 nM | 22% | 52 ± 28% | – | –
O=C(/C=C/[C@@H]1CC1(c1ccccc1)c1ccccc1)NCCCCc1cccnc1 [[S-(E)]-3-(2,2-Diphenylcyclopropyl)-N-[4-(3-pyridinyl)butyl]-2-propenamide] | 35 nM | 44% | – | 86 ± 7% | –
O=C(/C=C/C1CC1(c1cccc(F)c1)c1cccc(F)c1)NCCCCc1cccnc1 (racemic) [[R,S-(E)]-3-[2,2-bis(3-Fluorophenyl)cyclopropyl]-N-[4-(3-pyridinyl)butyl]-2-propenamide] | 53 nM | 30% | – | 96 ± 2% | –
O=C(/C=C/[C@@H]1CC1(c1cccc(F)c1)c1cccc(F)c1)NCCCCc1cccnc1 [[S-(E)]-3-[2,2-bis(3-Fluorophenyl)cyclopropyl]-N-[4-(3-pyridinyl)butyl]-2-propenamide] | 24 nM | – | 95 ± 79% | 90 ± 4% | 66%
COc1cccc([C@@]2(c3ccccc3)C[C@@H]2/C=C\C(=O)NCCCCc2cccnc2)c1 (relative stereo) [[1(R,S),2(S,R)-(Z)]-3-[[2-(3-Methoxyphenyl)-2-phenyl]cyclopropyl]-N-[4-(3-pyridinyl)butyl]-2-propenamide] | 250 nM | – | 15 ± 12% | – | –
O=C(/C=C/[C@H]1CC1(c1ccccc1)c1ccccc1)NCCCCc1cccnc1 [[R-(E)]-3-(2,2-Diphenylcyclopropyl)-N-[4-(3-pyridinyl)butyl]-2-propenamide] | 250 nM | – | 57 ± 19% | 71 ± 12% | –
O=C(/C=C/C1CC1(c1ccccc1)c1ccccc1)NCCCCc1cccnc1 (racemic) [[R,S-(E)]-3-(2,2-Diphenylcyclopropyl)-N-[4-(3-pyridinyl)butyl]-2-propenamide] | 150 nM | – | – | 48 ± 16% | –
